Article PMC10870435, “A novel complement C3 inhibitor CP40-KK protects against experimental pulmonary arterial hypertension via an inflammasome NLRP3 associated pathway” (Journal of Translational Medicine, 2024)
Bridge positions count the residues as written; N and C are the ends. Square brackets hold non-standard residues; d marks the D form. Peptide text beside a SMILES is read from it. Trp(1-Me) = Cn1cc(C[C@H](N)C(=O)O)c2ccccc21; NMeI = CC[C@H](C)[C@H](NC)C(=O)O; Sar = CNCC(=O)O

Key:
[1] = test system: rat complement C3 function; experiment: CH50 test ex vivo, plasma of PAH experiment groups; type: in vivo; conditions: 2 mg/kg s.c. day 15 to day 28
Procedure: In the current study, two animal experiments were conducted successively. 30 rats were randomly divided into two groups (control group and MCT group, n = 15 per group) in the first experiment. MCT group rats received a single intraperitoneally injection of MCT (40 mg/kg) on day 1 to induce PAH while control group rats received an equivoluminal saline injection intraperitoneally. For the second animal experiment, the rats were assigned into four groups (control group, MCT group, CP40-KK group, and MCT + CP40-KK group, n = 15 per group). […]
The total functional complement was determined with a CH50 assay based on the modified method of Mayer. […] The OD values of supernatant liquid in the ten tubes were measured at 541 nm and compared with that of the 50% haemolytic standard tube to get the most similar value. The total haemolytic complement (CH50) = dilution ratio / the quantity of plasma needed to induce 50% lysis of sheep erythrocytes.
Plasma samples for biological assays from rats were centrifuged and stored at -80°C until used, and the total functional complement was determined with a CH50 assay based on the modified method of Mayer. This assay involves determining the quantity of plasma needed to induce 50% lysis of sheep erythrocytes sensitized with antibody anti-sheep erythrocytes. […]

rat C3 = experiment: ELISA, direct binding of plasma C3 to coated peptide; conditions: peptide coated on ELISA plate, rat plasma dilutions, anti-C3 antibody, OD 450 nm
Procedure: CP40-KK and its control peptide were dissolved in coating buffer at different concentration and then added to wells of ELISA plate as designed. The coated plate was incubated at 4 °C overnight. Then the plate was incubated with plasma with the indicated dilution at 37 °C for 2 h. Next, the plate was incubated with the C3 antibody (1:2000, MP biomedicals, Irvine, CA, USA) at 37 °C for 2 h. Then the plate was washed for 3 times and incubated with corresponding HRP conjugated secondary antibodies (1:2000, Abcam, Cambridge, UK) at 37° for 1 h. Finally, TMB substrate was added to each well for indicated time at 37 °C and then the stop solution was added to stop the TMB reaction. OD values were measured at 450 nm using a microplate reader (Bio-tek, Vermont, USA). The coating buffer, wash buffer, TMB substrate, and stop solution were all bought from Boster Biological Technology (Wuhan, China).
CP40-KK and its control peptide were dissolved in coating buffer at different concentrations and then added to wells of ELISA plate as designed. The coated plate was incubated at 4°C overnight. After removing the coating buffer from the wells, the plate was washed using wash buffer 3 times. Then the plate was incubated with plasma with the indicated dilution at 37°C for 2h. […] OD values were measured at 450nm using a microplate reader (Bio-tek, Vermont, USA). […]

SMILES: CC[C@H](C)[C@H](NC(=O)[C@H](N)Cc1ccc(O)cc1)C(=O)N[C@H]1CSSC[C@@H](C(=O)N(C)[C@H](C(=O)N[C@@H](CCCCN)C(=O)N[C@@H](CCCCN)C(N)=O)[C@@H](C)CC)NC(=O)[C@H](CCCNC(=N)N)NC(=O)[C@H](Cc2c[nH]cn2)NC(=O)CN(C)C(=O)[C@H](Cc2c[nH]c3ccccc23)NC(=O)[C@H](CC(=O)O)NC(=O)[C@H](CCC(N)=O)NC(=O)[C@H](Cc2cn(C)c3ccccc23)NC(=O)[C@H](C(C)C)NC1=O [CP40-KK] (H-[dY]ICV[Trp(1-Me)]QDW[Sar]HRC[NMeI]KK-NH2; disulfide 3-12 (inferred))
- CH50 value ex vivo, MCT + CP40-KK vs MCT group [1]: could reverse it
- direct binding of rat C3 and CP40-KK (OD450) (rat C3): specific binding
